IC50 data for four compounds are collected here from BindingDB's records for doi:10.1021/acs.jnatprod.5b00540 (Toyama Prefectural University, 2015).

Numbered stars: 1 amine (or outer) side, 2 acyl side, 3 side chain; on linkers, the order of the positions; unused ones are H or OH. Bridge positions count the residues as written; N and C are the ends. Square brackets hold non-standard residues; d marks the D form. Peptide text beside a SMILES is read from it. * marks the point of attachment. Cinnamoyl(2-(1Z-pentenyl)) = CCC/C=C\c1ccccc1/C=C/C(=O)*; X1 = CN(/C(=C/c1ccc(O)cc1)C(=O)[*:2])[*:1]; aThr = C[C@H](O)[C@H](N)C(=O)O

What is called IC50 is the concentration needed to halve the response being measured. Higher therefore signals a need for much substance.

In the experiment the target is T1, Accessory gene regulator protein A (Staphylococcus aureus, UniProt P0A0I7).
T1 sequence (P0A0I7 whole entry): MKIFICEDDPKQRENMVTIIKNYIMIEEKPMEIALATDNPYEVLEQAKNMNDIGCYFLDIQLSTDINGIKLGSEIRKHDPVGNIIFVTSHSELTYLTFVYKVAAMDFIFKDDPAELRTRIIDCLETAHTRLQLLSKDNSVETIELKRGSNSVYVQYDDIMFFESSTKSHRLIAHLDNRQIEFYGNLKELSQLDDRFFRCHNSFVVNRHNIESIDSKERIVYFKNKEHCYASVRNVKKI
Nature of the experiment: Inhibition of agr-mediated quorum sensing in Staphylococcus aureus after 5 hrs by luminescence analysis.
`C[C@H]1NC(=O)[C@@H](Cc2ccccc2)N(C)C(=O)[C@@H]2CCCN2C(=O)c2ccccc2NC(=O)[C@H](Cc2ccccc2)NC1=O` yielded an IC50 of 4.4 µM. The value for `CCC/C=C\c1ccccc1/C=C/C(=O)N[C@@H]1C(=O)N(C)/C(=C/c2ccc(O)cc2)C(=O)N[C@@H](CC(C)C)C(=O)N[C@H](Cc2ccccc2)C(=O)N[C@@H]([C@H](C)O)C(=O)N[C@@H](CC(N)=O)C(=O)N[C@@H](CO)C(=O)O[C@@H]1C` ({Cinnamoyl(2-(1Z-pentenyl))}-T[X1]L[dF][aThr]NS; ester 1-C) was 2.5 µM; that for `CC[C@H](C)[C@@H]1NC(=O)[C@@H](C)NC(=O)[C@H](C(C)C)NC(=O)C[C@H](/C=C/c2ccccc2)OC(=O)[C@H](C(C)C)NC1=O` [CHEBI:67522] was 0.8 µM. In turn, `CC(C)[C@@H]1NC(=O)C[C@H](/C=C/c2ccccc2)OC(=O)[C@H](C(C)C)NC(=O)[C@H](C(C)C)NC(=O)[C@@H](C)NC1=O` came in with an IC50 of 0.3 µM.
